Laboratory results as given in article PMC7269146, “Jingzhaotoxin-X, a gating modifier of Kv4.2 and Kv4.3 potassium channels purified from the venom of the Chinese tarantula Chilobrachys jingzhao” (The Journal of Venomous Animals and Toxins Including …, 2020).
Where a SMILES comes first, the peptide text is derived from it. Bridges are numbered along the chain shown (N, C = ends).

Assays:
[1] = mechanical hyperalgesia / nociceptive behavior in mice (von Frey, up-down); type: in vivo, mouse (male C57BL/6); details: 40 nmol/kg
Procedure: In the present study, male C57BL/6 mice weighing 20-25 g were utilized. This study was performed following the Guide for the Care and Use of Laboratory Animals released by the United States National Institutes of Health (US NIH). Our study protocol was approved by the Animal Experiments Ethics Committee at Central Southern University (No. 2018-2-6). Each operation was performed under isoflurane-induced anesthesia to reduce pain and minimize animal suffering. Lumbar puncture was also conducted for intrathecal injection, as described previously. Next, the effect of JZTX-X on nociception was evaluated by assessing the behaviors during the mechanical hyperalgesia process. The JZTX-X-induced mechanical hyperalgesia was investigated by two experiments via various administration routes, including intrathecal and intraplantar injections. Then, animals were challenged via intrathecal (10 µL) or intraplantar (20 µL) injection of JZTX-X (40 nmol/kg). The control group was given a physiological solution, which contained 0.9% NaCl, […].
Mechanical hyperalgesia was measured according to the previously depicted “up-down” paradigm. Individual mice were allowed to acclimate for at least 30 min on the mesh floor in suspended chambers. After acclimatization, various calibrated von Frey filaments (Stoelting, Wood Dale, IL) were applied to all animals, which were vertical to the hind paw plantar surfaces becausethere was enough force for bending those filaments for 6 s. Later, the animal responses were recorded. The positive response was defined as paw flinching or brisk withdrawal. When there was no response, force filament at a greater level was applied. Accordingly, force ligament at a lower level was applied […]. The “up-down” approach was adopted to calculate the 50% likelihood where one withdrawal response was produced by the simple stimulus.

[2] = target: T1, Kv4.3 (Rattus norvegicus, UniProt Q62897); assay: whole-cell patch-clamp, Kv4.3 in HEK293t cells, concentration-response and time course; type: cell-based
T1 construct: expressed in transfected cells; host or cells: HEK293t
T1 sequence (Q62897 1-655): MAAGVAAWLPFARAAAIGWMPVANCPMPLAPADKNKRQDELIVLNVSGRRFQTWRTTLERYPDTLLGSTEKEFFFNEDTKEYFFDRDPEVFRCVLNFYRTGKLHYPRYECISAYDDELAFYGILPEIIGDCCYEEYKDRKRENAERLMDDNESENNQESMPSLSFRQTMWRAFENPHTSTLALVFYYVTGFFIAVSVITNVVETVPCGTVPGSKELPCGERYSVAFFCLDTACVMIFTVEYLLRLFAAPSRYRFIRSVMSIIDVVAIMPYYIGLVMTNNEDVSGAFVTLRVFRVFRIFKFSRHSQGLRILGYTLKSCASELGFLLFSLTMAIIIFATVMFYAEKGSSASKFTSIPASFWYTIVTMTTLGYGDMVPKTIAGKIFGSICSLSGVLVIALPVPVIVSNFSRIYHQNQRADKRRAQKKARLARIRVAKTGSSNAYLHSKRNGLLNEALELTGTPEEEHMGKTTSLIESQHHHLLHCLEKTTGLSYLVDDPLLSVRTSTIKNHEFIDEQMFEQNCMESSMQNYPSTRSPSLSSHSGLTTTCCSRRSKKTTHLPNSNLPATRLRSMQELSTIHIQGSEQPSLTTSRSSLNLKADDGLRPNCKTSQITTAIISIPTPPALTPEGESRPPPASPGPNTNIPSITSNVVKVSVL
From the text: Rat cDNA genes encoding Kv4.2 (Accession: NM_031730.2) and Kv4.3 (Accession: AB003587.1) were subcloned to vector pcDNA3.1. In addition, human cDNA genes encoding Nav1.7 (Accession: DQ857292.1) and Nav1.5 (Accession: AB158469.2) were subcloned to vectors pcDNA3.1-mod and pcDNA3.1, separately. Then, Kv4.2, Kv4.3, Nav1.5 and Nav1.7 constructs were transiently transfected into the human embryonic kidney 293t (HEK293t) cells using lipofectamine 2000 (Invitrogen, USA) in accordance with manufacturer protocols. Thereafter, HEK293 cells were inoculated within Dulbecco’s modified Eagle’s medium (DMEM) containing 10% fetal bovine serum (FBS) at 5% CO2 and 37°C. The Kv4.3 channel and the Kv4.2 counterpart were then transfected in the absence of β subunit. Subsequently, cells were incubated with a DNA-lipofectamine mixture (one reporter plasmid for green fluorescence protein and channel constructs) for 4-6 h, and were washed with the fresh medium.
An EPC-10 patch-clamp amplifier (HEKA, Germany) was employed to record the potassium currents at the configuration of whole-cell patch-clamp under an ambient temperature of 22-25°C. The resistance was 2.0-3.0 MΩ when the recording pipette contained a full volume of internal solution (supplemented with 140 mM KCl, 10 mM HEPES, 2.5 mM MgCl2, 5 mM ATP and 11 mM EGTA). KOH was utilized to adjust the pH to 7.2, while sucrose was employed to adjust the osmolarity to 310 mOsm/L. The culture medium was replaced with an external solution containing 150 mM NaCl, 2.5 mM CaCl2, 10 mM HEPES, 2 mM MgCl2, 5 mM KCl, and 10 mM D-glucose. Similarly, sucrose and NaOH were applied to adjust the osmolarity to 330 mOsm/L and pH to 7.4. […] The series resistance was maintained at about 5 MΩ, with 65-70% compensation. Finally, the leakage currents and linear capacitance were subtracted digitally according to the P/4 protocol. […]
On-rates were determined by fitting time course data with a single exponential decay function (2): y = Ae^-kx + C, where x is the time, A is the normalized current value before the application of toxin (usually 1.0), and C is the final normalized current value following the block by the toxin. The on-rate (τon) was determined from the inverse of the rate constant k.
Off-rates were determined by fitting time course data with a double exponential association function (3): y = A(1-e^-kx) + B(1-e^-fx) + C, where x is the time, A or B is the normalized current value after washout of the toxin (usually 1.0 if complete washout occurred), and C is the normalized current value before the washout of the toxin. The off-rate (τoff) was determined from the inverse of the rate constant k or f.

## CC(C)C[C@@H]1NC(=O)[C@H](CCCCN)NC(=O)[C@H](Cc2ccc(O)cc2)NC(=O)[C@@H]2CSSC[C@@H]3NC(=O)[C@H](Cc4ccc(O)cc4)NC(=O)[C@H](Cc4ccccc4)NC(=O)CNC(=O)[C@H](C)NC(=O)[C@H](CSSC[C@H](NC(=O)[C@@H](N)CC(C)C)C(=O)N[C@@H](CO)C(=O)N[C@@H](CCCNC(=N)N)C(=O)N[C@@H](CCC(=O)O)C(=O)NCC(=O)N[C@@H](CCC(=O)O)C(=O)N[C@@H](Cc4ccccc4)C(=O)N2)NC(=O)[C@H](CSSC[C@@H](C(=O)N[C@@H](Cc2ccc(O)cc2)C(=O)N[C@@H](CCCNC(=N)N)C(=O)N[C@@H](CC(N)=O)C(=O)O)NC(=O)[C@H](Cc2c[nH]cn2)NC(=O)[C@H](CC(C)C)NC(=O)[C@H](C(C)C)NC(=O)[C@H](Cc2ccccc2)NC(=O)[C@H](C)NC(=O)[C@H](CCCCN)NC3=O)NC(=O)[C@H](CCCCN)NC(=O)[C@H](CCCNC(=N)N)NC1=O [JZTX-X, Jingzhaotoxin-X] (H-LCSREGEFCYKLRKCCAGFYCKAFVLHCYRN-OH; disulfide 2-16, 9-21, 15-28; N-terminus assumed)
[1]; intraplantar, n = 8
  baseline threshold of tactile withdrawal: markedly decreased
[1]; intrathecal or intraplantar, after cessation of treatment
  duration of reduced paw withdrawal threshold: at least 120 min
[1]; intrathecal or intraplantar, n = 8
  spontaneous nociceptive behaviors: did not induce spontaneous nociceptive behaviors
[1]; intrathecal, n = 8
  baseline threshold of tactile withdrawal: markedly decreased
[2]; -80 mV, no pulse during first ~100 s of treatment with 200 nM or 500 nM (order Kv4.2, Kv4.3), same as with pulses at 5 s intervals, n = 5
  inhibition of Kv4.3 at resting potential without pulses: approximately 95%
[2]; HEK293t cells, 1 nM-10 μM, 300-ms step to +20 mV from -80 mV, 22-25°C, pH 7.4, Hill equation fit, n = 8, read-out: IC50 for Kv4.3 channels
  IC50: 210 nM
[2]; HEK293t cells, +20 mV from -80 mV, n = 8
  Hill Coefficient, Kv4.3: 1.17
[2]; in 3 min following rinsing, high JZTX-X dose, HEK293t cells, n = 6
  reversal of Kv4.3 inhibition after rinsing: > 95%
